Assay results from patent US20030144237A1, “Use of inhibition of a gas6 function or of a gas6 receptor for preventing and treating a cardiovascular disease” (priority 2000, published 2003).

Experiments:
[1] = tested on: platelets from Gas6−/− mice; assay: Platelet aggregation (turbidimetric, Chronolog aggregometer), Gas6−/− platelets; format: cell-based; details: for platelet aggregation in response to PMA, A23187 or thrombin: FIG. 2, thrombin with washed platelets; for irreversible platelet aggregation at higher agonist concentrations: ADP 50 μM, collagen 5-15 μg/ml, U46619 100 μM; for irreversible platelet aggregation at low agonist concentrations: ADP <10 μM, collagen 2 μg/ml, U46619 10 μM, only shape change
Procedure: (§1) Blood was centrifuged at 100 g for 10 minutes, allowing separation of platelet-rich plasma (PRP). Platelet-poor plasma (PPP) was obtained by centrifugation of the remaining blood at 2,000 g for 10 minutes. PRP and PPP were pooled from four Gas6^−/− or Gas6^+/+ mice. Platelet aggregation was measured turbidimetrically in an optical Chronolog aggregometer (model 490, Coulter Electronics Ltd), using 280 μl PRP, adjusted to a concentration of 250,000 platelets/μl with PPP as a diluent. PPP also served as 100% reference for aggregation. Aggregation in response to collagen (equine collagen from Hormon Chemie), ADP or the thromboxane A2 mimetic U46619 was studied.
(§2) Aggregation in response to thrombin was performed with washed platelets. […] Apyrase was added to PRP at a final concentration of 1 u/ml. Platelets were then washed by adding 2 volumes ACD and pelleted by centrifugation at 2,000 g for 10 minutes. Platelet pellet was resuspended in Tyrode's buffer containing 1% BSA and final platelet suspension was adjusted to 200,000 platelets/μl and kept at 37° C. Platelet aggregation was measured with an optical Chronolog aggregometer as described above.

[2] = tested on: Platelets from Gas6+/+ mice; assay: Platelet aggregation (turbidimetric, Chronolog aggregometer), Gas6+/+ platelets; format: cell-based; details: for platelet aggregation in response to PMA, A23187 or thrombin: FIG. 2, thrombin with washed platelets; for platelet aggregation in response to agonist (dose dependence): platelet-rich plasma, FIG. 1a-j
Procedure: as §1, §2

Gas6+/+ platelets = assay: Platelet ATP release (dense granule secretion), Lumi-aggregometer, Gas6+/+ platelets; format: cell-based, mice; design: unit not given here; details: mean±SEM of three experiments
Procedure: (§3) Platelet aggregation and, ATP secretion were measured in an optical Chronolog Lumi-aggregometer (Coulter Electronics Ltd), using 280 μl PRP, adjusted to a concentration of 250,000 platelets/μl with PPP as a diluent. Platelet aggregation was measured as described in example 4. Platelet ATP release was monitored by adding firely luciferase and luciferin to all samples and comparing luminescence created by platelet ATP release to that generated by addition of an ATP standard (Chrono-Lume, Kordia). Aggregation and ATP release in response to collagen (equine collagen from Hormon Chemie), ADP, or the thromboxane A2 mimetic U46619 were studied. Platelet aggregation and ATP secretion in response to thrombin were performed with washed platelets in an optical Chronolog Lumi-aggregometer as described above.

Gas6−/− platelets = assay: Platelet ATP release (dense granule secretion), Lumi-aggregometer, Gas6−/− platelets; format: cell-based, mice; design: unit not given here; details: mean±SEM of three experiments
Procedure: as §3

[3] = agonist 8 μM, platelet-rich plasma
[4] = agonist 20 μM, platelet-rich plasma
[5] = agonist 50 μM, platelet-rich plasma
[6] = agonist 100 μM, platelet-rich plasma
[7] = agonist 10 μg/ml, platelet-rich plasma
[8] = agonist 1 U/ml, washed platelets

Compound	platelet aggregation in response to PMA, A23187 or thrombin [1]	platelet aggregation in response to PMA, A23187 or thrombin [2]	irreversible platelet aggregation at higher agonist concentrations [1]	irreversible platelet aggregation at low agonist concentrations [1]	platelet aggregation in response to agonist (dose dependence) [2]	ATP release (Gas6+/+ platelets; [6])	ATP release (Gas6−/− platelets; [6])	further results
CNc1ccc2oc(C[C@H]3O[C@@]4(CC[C@H]3C)O[C@H]([C@H](C)C(=O)c3ccc[nH]3)[C@H](C)C[C@H]4C)nc2c1C(=O)O [A23187]	aggregated normally	aggregated normally						ATP release (Gas6+/+ platelets; [3]): 9.2 ± 3.1; ATP release (Gas6−/− platelets; [3]): 7.3 ± 3.0
Nc1ncnc2c1ncn2[C@@H]1O[C@H](COP(=O)(O)OP(=O)(O)O)[C@@H](O)[C@H]1O [ADP, adenosine 5′-diphosphate]			induced irreversible aggregation	failed to irreversibly aggregate	dose-dependently aggregated			ATP release (Gas6+/+ platelets; [4]): 0.8 ± 0.1; ATP release (Gas6+/+ platelets; [5]): 2.6 ± 0.8; ATP release (Gas6−/− platelets; [4]): 0.2 ± 0.1; ATP release (Gas6−/− platelets; [5]): 1.3 ± 0.3
CCCCCCCCCCCCCC(=O)O[C@@H]1[C@@H](C)[C@@]2(O)[C@@H](C=C(CO)C[C@]3(O)C(=O)C(C)=C[C@@H]23)[C@@H]2C(C)(C)[C@]12OC(C)=O [PMA, phorbol-12-myristyl-13-acetate]	aggregated normally	aggregated normally				2.3 ± 0.4	1.9 ± 0.6	
CCCCC[C@H](O)/C=C/[C@@H]1[C@@H](C/C=C\CCCC(=O)O)[C@H]2CO[C@@H]1C2 [U46619]			induced irreversible aggregation	failed to irreversibly aggregate	dose-dependently aggregated	8.2 ± 2.0	7.6 ± 2.3	ATP release (Gas6+/+ platelets; agonist 10 μM, platelet-rich plasma): 6.5 ± 1.5
Collagen			induced irreversible aggregation	failed to irreversibly aggregate	dose-dependently aggregated			ATP release (Gas6+/+ platelets; agonist 1 μg/ml, platelet-rich plasma): 1.8 ± 0.3; ATP release (Gas6+/+ platelets; [7]): 10 ± 1.0; ATP release (Gas6−/− platelets; [7]): 11 ± 0.8
Thrombin	stimulated platelet aggregation comparably in both genotypes	stimulated platelet aggregation comparably in both genotypes						ATP release (Gas6+/+ platelets; [8]): 17 ± 1.6; ATP release (Gas6−/− platelets; [8]): 11 ± 1.2
